According to patent US20240391942A1 (priority 2021, published 2024):

How the values were obtained:
Test in all cases: cells
Type in all cases: cell-based
[1] = test system: A-431; details: Homo sapiens, A-431, 72 h
[2] = test system: SK-HEP-1; details: Homo sapiens, SK-HEP1, 72 h
[3] = test system: A-375; details: Homo sapiens, A-375, 72 h
[4] = test system: U-937; details: Homo sapiens, U-937, 72 h
[5] = test system: A549; details: Homo sapiens, A549, 72 h
[6] = test system: SK-OV-3; details: Homo sapiens, SK-OV-3, 72 h
[7] = test system: NCI-H1299; details: Homo sapiens, NCI-H1299, 72 h
[8] = test system: HCC827; details: Homo sapiens, HCC827, 72 h

Structure (SMILES): CN[C@@H]1C[C@H]2O[C@@](C)([C@@H]1OC)n1c3ccccc3c3c4c(c5c6ccccc6n2c5c31)C(=O)NC4 [Staurosporine]
- IC50 [1]: 21.1 nM
- IC50 [2]: 16.9 nM
- IC50 [3]: 18 nM
- IC50 [4]: 13.9 nM
- IC50 [5]: 13.1 nM
- IC50 [6]: 28 nM
- IC50 [7]: 9.2 nM
- IC50 [8]: 16.1 nM
